According to US7906684B2, “Antioxidants” (Merck Patent Gesellschaft Mit Beschrankter Haftung, priority 2006, dated 2011):

Key:
[1] = Photoconversion test, 4% solution in isopropyl myristate on Perspex support, simulated solar irradiation; type: physicochemical; conditions: 2 μlcm^−2 on rough Perspex, Suntester 1 h 50 min, extracted with isopropanol, made up to 50 ml
Protocol: A 4% solution of the substance in isopropyl myristate is applied at a rate of 2 μlcm^−2 to a rough Perspex support. The sample is subjected to simulated solar irradiation in a Suntester for 1 h 50 min. After irradiation, the sample is extracted with 40 ml of isopropanol and made up to a precise volume of 50 ml. Compared with an unirradiated sample, an increase in absorbance at the substance maximum at 285 nm of 0.77 absorption units arises.

[2] = lipid assay (2,2'-azobis(2-aminopropane) = ABAP assay), Bünger et al. method; conditions: according to the Bünger et al. method
Source text: (§1) A detailed description, besides the […] just described, for the lipid assay (or 2,2′-azobis(2-aminopropane)=ABAP assay) or the TEAC assay (TEAC=trolox equivalent antioxidant capacity) is also found in Bünger et al, International Journal of Cosmetic Science, 2006, 28, 135-146.

[3] = TEAC assay (trolox equivalent antioxidant capacity), Bünger et al. method; conditions: according to the Bünger et al. method
Source text: as §1

[4] = Photoconversion test, substance on roughened Perspex plates, sun simulation; type: physicochemical; conditions: 0.75 mg/cm^−2 on roughened Perspex plates, FIG. 1
Protocol: The substance is applied to roughened Perspex plates (0.75 mg/cm^−2) and irradiated under sun simulation. The dose is to be understood as the absolute, unweighted total UV irradiation dose. After each irradiation step, the UV absorption of the sample is measured against placebo (placebo=Perspex plate with glycerol).

Row | increase in absorbance at the substance maximum at 285 nm compared with an unirradiated sample [1] | Compound | lipid assay [2] | TEAC assay [3] | UV absorption of the sample after irradiation, measured against placebo [4]
1 | 0.77 absorption units | COc1ccc(C(O)c2ccccc2)cc1 (stereo not shown) [Compound (9), (4-methoxyphenyl)phenylmethanol] |  |  | 
2 |  | COc1ccc(C(O)c2ccccc2)c(O)c1 (stereo not shown) [Compound (5), 2-(hydroxyphenylmethyl)-5-methoxyphenol] | 8% | 50% | increases in absorption power due to irradiation
